Experimental data reported in ChEMBL document CHEMBL5154804, “Species-Selective Targeting of Fungal Hsp90: Design, Synthesis, and Evaluation of Novel 4,5-Diarylisoxazole Derivatives for the Combination Treatment of Azole-Resistant Candidiasis” (J Med Chem, 2022).
Calls of active or inactive are those of the source. No cut-off for these calls is given here.

Experiments:
CYP2C19 [1] = target: T1, CYP2C19 (Homo sapiens, UniProt P33261); test: Inhibition of CYP2C19 in human liver microsome at 10 uM using S-mephenytoin as substrate incubated for 10 mins in presence of NADPH cofactor and fluconazole by LC-MS/MS analysis; assay type: ADME; settings: liver microsomes, probe S-mephenytoin
[2] = Stability in rat plasma assessed as half life at 120 mins by LC-MS/MS analysis; assay type: ADME, cell-free
Candida albicans [3] = test: Induction of morphological changes in Candida albicans 904 assessed as hyphal formation by measuring TEC1 level incubated for 4 hrs in presence of fluconazole; assay type: functional, organism-based
[4] = Cytotoxicity against human BEAS-2B cell assessed as inhibition of cell growth after 24 hrs by MTT assay; assay type: toxicity, cell-based; settings: BEAS-2B cells
Candida albicans [5] = test: Induction of morphological changes in Candida albicans 904 assessed as hyphal formation by measuring EFG1 level incubated for 4 hrs in presence of fluconazole; assay type: functional, organism-based
[6] = Cytotoxicity against human THLE-2 cell assessed as inhibition of cell growth after 24 hrs by MTT assay; assay type: toxicity, cell-based; settings: THLE-2 cells
Rattus norvegicus [7] = test: In vivo antifungal activity against azole resistant Candida albicans 904 infected in rat assessed as aggregation of inflammatory leukocytes at 10 mg/kg, ip administered for 5 days, qd by PAS and HE staining based microscopy; assay type: functional, organism-based; settings: time 5.0 day
Candida albicans [8] = test: Synergetic antifungal activity against fluconazole-resistant Candida albicans 311 assessed as fractional inhibitory concentration index in presence of fluconazole by checker board microdilution assay; assay type: functional
Candida albicans [9] = test: Synergetic antifungal activity against fluconazole-resistant Candida albicans 100 assessed as fractional inhibitory concentration index in presence of fluconazole by checker board microdilution assay; assay type: functional
Candida albicans [10] = test: Potentiation of fluconazole-induced antifungal activity against fluconazole-resistant Candida albicans 103 assessed as fluconazole MIC by checker board microdilution assay; assay type: functional
Candida albicans [11] = test: Reversal of fluconazole mediated azole resistance Candida albicans 904 assessed as downregulation of ERG11 at 32 ug/ml in presence of fluconazole by RT-PCR; assay type: functional, organism-based; settings: dose 32.0 µg/ml
Candida albicans [12] = test: Fungicidal activity against Candida albicans 904 assessed as colony forming at 4 times MIC incubated for 48 hrs by time-kill curve assay; assay type: functional
Candida albicans [13] = test: Potentiation of fluconazole-induced antifungal activity against fluconazole-resistant Candida albicans 632 assessed as fluconazole MIC by checker board microdilution assay; assay type: functional
Candida albicans [14] = test: Synergistic antifungal activity against fluconazole-resistant Candida albicans 904 assessed as inhibition of fungal growth in presence of fluconazole by checker board microdilution assay; assay type: functional
CYP1A2 [15] = target: T2, CYP1A2 (Homo sapiens, UniProt P05177); test: Inhibition of CYP1A2 in human liver microsome at 10 uM using phenacetin as substrate incubated for 10 mins in presence of NADPH cofactor and fluconazole by LC-MS/MS analysis; assay type: ADME; settings: liver microsomes, probe phenacetin
T2 sequence (P05177 whole entry): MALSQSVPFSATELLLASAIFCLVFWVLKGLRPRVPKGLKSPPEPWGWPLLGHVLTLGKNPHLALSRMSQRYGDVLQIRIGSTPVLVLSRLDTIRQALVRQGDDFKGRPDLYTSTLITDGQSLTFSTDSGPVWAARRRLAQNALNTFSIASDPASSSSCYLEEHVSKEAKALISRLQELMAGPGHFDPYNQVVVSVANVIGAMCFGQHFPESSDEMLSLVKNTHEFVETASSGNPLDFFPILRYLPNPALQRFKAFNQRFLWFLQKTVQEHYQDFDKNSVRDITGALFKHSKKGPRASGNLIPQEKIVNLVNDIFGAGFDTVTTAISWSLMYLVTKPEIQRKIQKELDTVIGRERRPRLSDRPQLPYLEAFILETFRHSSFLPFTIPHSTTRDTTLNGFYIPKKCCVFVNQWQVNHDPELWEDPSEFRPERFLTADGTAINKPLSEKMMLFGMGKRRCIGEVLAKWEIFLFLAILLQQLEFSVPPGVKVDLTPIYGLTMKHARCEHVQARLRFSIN

[16] = Metabolic stability in human liver microsomes assessed as compound remaining in presence of NADPH cofactor under shaking condition for 10 mins measured after 60 mins by LC-MS/MS analysis; assay type: ADME, Microsome; settings: time 70 min, read-out: Stability
[17] = Metabolic stability in rat liver microsomes assessed as compound remaining in presence of NADPH cofactor under shaking condition for 10 mins measured after 60 mins by LC-MS/MS analysis; assay type: ADME, Microsome; settings: time 70 min, read-out: Stability
CYP1A2 [18] = target: T2, CYP1A2; test: Inhibition of CYP1A2 in human liver microsome at 10 uM using phenacetin as substrate incubated for 10 mins in presence of NADPH cofactor by LC-MS/MS analysis; assay type: ADME; settings: liver microsomes, probe phenacetin
[19] = Volume of distribution in Sprague-Dawley rat at 10 mg/kg, iv measured upto 24 hrs by LC/MS/MS analysis; assay type: ADME, organism-based; settings: in vivo
CYP2D6 = CYP2D6 (Homo sapiens, UniProt P10635); test: Inhibition of CYPD6 in human liver microsome at 10 uM using dextromethorphan as substrate incubated for 10 mins in presence of NADPH cofactor and fluconazole by LC-MS/MS analysis; assay type: ADME; settings: liver microsomes, probe dextromethorphan
Candida albicans [20] = test: Ratio of MFC for Candida albicans 904 to MIC for Candida albicans 904 in presence of fluconazole; assay type: functional
[21] = Metabolic stability in rat liver microsomes assessed as microsomal intrinsic clearance in presence of NADPH cofactor under shaking condition for 10 mins measured after 5 to 60 mins by LC-MS/MS analysis; assay type: ADME, Microsome; settings: time 15-70 min
HepG2 = test: Cytotoxicity against human HepG2 cell assessed as inhibition of cell growth after 24 hrs by MTT assay; assay type: functional, cell-based; settings: HepG2, 24 h
[22] = Cytotoxicity against mouse BV-2 cell assessed as inhibition of cell growth after 24 hrs by MTT assay; assay type: toxicity, cell-based; settings: BV-2 cells
Candida albicans [23] = test: Antifungal activity against fluconazole-resistant Candida albicans 632 assessed as inhibition of fungal growth by checker board microdilution assay; assay type: functional
CYP2C19 [24] = target: T1, CYP2C19; test: Inhibition of CYP2C19 in human liver microsome at 10 uM using S-mephenytoin as substrate incubated for 10 mins in presence of NADPH cofactor by LC-MS/MS analysis; assay type: ADME; settings: liver microsomes, probe S-mephenytoin
Candida albicans [25] = test: Fungicidal activity against Candida albicans 904 assessed as colony forming at 4 times MIC in presence of fluconazole incubated for 48 hrs by time-kill curve assay; assay type: functional
MCF7 = test: Cytotoxicity against human MCF7 cell assessed as inhibition of cell growth after 24 hrs by MTT assay; assay type: functional, cell-based; settings: MCF7, 24 h
Candida albicans [26] = test: Potentiation of fluconazole-induced antifungal activity against fluconazole-resistant Candida albicans 901 assessed as fluconazole MIC by checker board microdilution assay; assay type: functional
Candida albicans [27] = test: Potentiation of fluconazole-induced antifungal activity against fluconazole-resistant Candida albicans 904 assessed as fluconazole MIC by checker board microdilution assay; assay type: functional
Rattus norvegicus [28] = test: In vivo antifungal activity against azole resistant Candida albicans 904 infected in rat assessed as decrease in fungal invasion at 10 mg/kg, ip in presence of fluconazole administered for 5 days, qd by PAS and HE staining based microscopy; assay type: functional, organism-based; settings: time 5.0 day
[29] = Binding affinity to recombinant Candida albicans Hsp90 NBD expressed in Escherichia coli by SPR assay
Heat shock protein HSP90 = Heat shock protein HSP90 (Homo sapiens, UniProt P07900+P08238); test: Binding affinity to human Hsp90 expressed in Escherichia coli by SPR assay

T1 sequence (P33261 whole entry): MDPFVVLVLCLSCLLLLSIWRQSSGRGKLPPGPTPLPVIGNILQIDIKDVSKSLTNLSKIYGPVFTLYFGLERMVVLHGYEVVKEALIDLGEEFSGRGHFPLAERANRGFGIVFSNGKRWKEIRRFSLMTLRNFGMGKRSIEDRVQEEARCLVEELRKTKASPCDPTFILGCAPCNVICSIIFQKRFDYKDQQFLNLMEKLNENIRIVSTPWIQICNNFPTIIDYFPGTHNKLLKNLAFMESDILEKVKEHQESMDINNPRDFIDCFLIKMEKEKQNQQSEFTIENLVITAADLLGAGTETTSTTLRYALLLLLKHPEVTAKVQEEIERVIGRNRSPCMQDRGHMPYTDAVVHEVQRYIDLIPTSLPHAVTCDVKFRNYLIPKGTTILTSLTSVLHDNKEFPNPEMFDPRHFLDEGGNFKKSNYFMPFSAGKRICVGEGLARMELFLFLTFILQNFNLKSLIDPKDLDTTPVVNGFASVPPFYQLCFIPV
Sequence of CYP2D6 (P10635 whole entry): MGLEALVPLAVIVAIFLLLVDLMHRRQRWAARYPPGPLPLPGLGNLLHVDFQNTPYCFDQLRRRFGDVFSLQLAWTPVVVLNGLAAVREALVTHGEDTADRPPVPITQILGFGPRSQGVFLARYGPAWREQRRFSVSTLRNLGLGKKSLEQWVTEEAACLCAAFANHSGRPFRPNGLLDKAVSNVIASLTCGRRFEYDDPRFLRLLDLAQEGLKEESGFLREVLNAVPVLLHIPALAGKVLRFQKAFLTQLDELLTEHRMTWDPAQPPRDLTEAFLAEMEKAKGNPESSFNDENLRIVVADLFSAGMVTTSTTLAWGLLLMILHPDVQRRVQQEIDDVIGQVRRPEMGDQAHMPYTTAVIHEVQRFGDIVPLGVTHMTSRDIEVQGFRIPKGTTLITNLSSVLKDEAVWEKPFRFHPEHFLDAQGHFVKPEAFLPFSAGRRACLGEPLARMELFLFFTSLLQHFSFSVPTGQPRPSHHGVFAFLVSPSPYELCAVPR

Row | SMILES | Activity (Candida albicans [3]) | IC50 at 24 h [4] | Activity (Candida albicans [5]) | IC50 at 24 h [6] | fractional inhibitory concentration index (FICI) (Candida albicans [8]) | fractional inhibitory concentration index (FICI) (Candida albicans [9]) | MIC80 (Candida albicans [10]) | MFC (Candida albicans [12]) | MIC80 (Candida albicans [13]) | MIC80 (Candida albicans [14]) | remaining at 1.167 h [16] | inhibition at 10 min, 10 µM (CYP1A2 [18]) | Ratio (Candida albicans [20]) | IC50 (HepG2) | IC50 at 24 h [22] | MIC80 (Candida albicans [23]) | inhibition at 10 min, 10 µM (CYP2C19 [24]) | MFC (Candida albicans [25]) | IC50 (MCF7) | MIC80 (Candida albicans [26]) | further results
1 | CCNC(=O)c1noc(-c2cc(-c3ccc(C)cc3)c(O)cc2O)c1-c1ccc(CN2CCOCC2)cc1 | Active | > 50 µM | Active | 7.15 µM | 0.035 | 0.033 | 2 µg/mL | > 64 µg/mL | 2 µg/mL | 0.25 µg/mL | 27.4% | 8% | 1 | 17.4 µM | 10.3 µM | > 64 µg/mL | 22.2% | 0.25 µg/mL | 34.1 µM | 1 µg/mL | inhibition at 10 min, 10 µM (CYP2C19 [1]): 56.9%; half-life [2]: > 4.8 h; Activity (Rattus norvegicus [7]): Active; Activity (Candida albicans [11]): Active; inhibition at 10 min, 10 µM (CYP1A2 [15]): 17.8%; remaining at 1.167 h [17]: 23.6%; Vd [19]: 11.2 L/kg; inhibition at 10 min, 10 µM (CYP2D6): 36.4%; CLint [21]: 45.3 µL/min/mg; MIC80 (Candida albicans [27]): 2 µg/mL; Activity (Rattus norvegicus [28]): Active
2 | CNC(=O)c1noc(-c2cc(-c3ccc(C)cc3)c(O)cc2O)c1-c1ccc(CN2CCOCC2)cc1 | Active | 12.2 µM | Active | 10.6 µM | 0.062 | 0.035 | 2 µg/mL | > 64 µg/mL | 0.5 µg/mL | 0.25 µg/mL | 19.1% | 9.9% | 2 | > 50 µM | 11.1 µM | > 64 µg/mL | 18.6% | 0.5 µg/mL | 21.5 µM | 2 µg/mL | Kd [29]: 0.933 µM; Kd (Heat shock protein HSP90): > 25 µM; MIC80 (Candida albicans [27]): 1 µg/mL
